This passage reports induction of catalepsy results from patent publication US20260034119A1, “5-METHOXY-N,N-[…][…], THEIR […], AND METHODS FOR TREATMENT OF NEUROLOGICAL, […], AND SUBSTANCE USE DISORDERS” (priority 2023, published 2026).

The experiment relates to C57BL6J mice. Nature of the experiment: Catalepsy bar test (tetrabenazine / haloperidol induced). The following applies: 10.0 & 20.0 mg/kg s.c., 60 min post inj., vs vehicle. Type of experiment: in vivo, mouse. From the text:
Catalepsy, characterized by muscular rigidity and fixity of posture irrespective of external stimuli (Mann et al. 2015, Karuppagounder et al 2012) is a recognized model for Parkinson's disease (PD) in rodents, induced by dopamine (DA) antagonists such as haloperidol, and DA depleting agents like tetrabenazine (TBZ) (Jastrzębska-Więsek et al. 2022, Bhangale et al. 2016). TBZ, a reversible inhibitor of the type-2 vesicular monoamine transporter, primarily affects dopamine neurons by blocking vesicular storage and depleting monoamines (Jastrzębska-Więsek et al. 2022). In contrast, Haloperidol, a nonselective D2 dopamine antagonist, […] (Bhangale et al. 2016). C57BL6J mice are administered TBZ/Haloperidol at t=0 min and 4-F, 5-MeO-PyrT at t=30 min via subcutaneous injection, with Haloperidol (0.5 mg/kg) given intraperitoneal injection. Mice are tested individually at t=60 min, and catalepsy is defined by the absence of movement for 30-60 seconds with a cutoff time set to 60 second. […] The automated Maze Engineers Catalepsy Bar test, featuring sensors to detect forelimb removal from the bar, facilitates automatic recording of forelimb movement duration from the bar to the ground.

In the case of `COc1cc2c(cc1OC)C1CC(=O)C(CC(C)C)CN1CC2` (stereo not shown) [Tetrabenazine], the induction of catalepsy entry is reported as “significantly induces catalepsy”.
